Test results from the supplement of paper PMC3493320.

test system: NCI-H295R; assay: IC50 (antiproliferative, ATP content); details: 48 h
In short: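 Adrenocortical carcinoma cells were plated at 1500 per well in 1536-well plates in serum-free DMEM with ITS supplement, left overnight, then given library compounds by pin transfer at 8 final concentrations spanning 0.6 nM to 46 µM and held 48 h at 37 °C, 5% CO2. ATP was measured as CellTiter-Glo luminescence after 20 min at room temperature and scaled between vehicle and positive-control wells. A four-parameter logistic model was fitted to each series. The IC50 was taken from these fits, and compounds without a concentration response were recorded as above the top dose.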

| IC50 | Compound |
| --- | --- |
| > 46 µM | OS(C1=C(C(C)C)C=C3C([C@@]2(C)CCC[C@]([C@@](O)=O)(C)[C@@]([H])2CC3)=C1)(=O)=O |
| > 46 µM | CC[C@H]1OC(=O)[C@H](C)[C@@H](O[C@H]2C[C@@](C)(OC)[C@@H](O)[C@H](C)O2)[C@H](C)[C@@H](O[C@@H]2O[C@H](C)C[C@H](N(C)C)[C@H]2O)[C@](C)(O)C[C@@H](C)C(=O)[C@H](C)[C@@H](O)[C@]1(C)O |
| > 46 µM | CNNCc1ccc(C(=O)NC(C)C)cc1.Cl |
| > 46 µM | NC12CC3CC(CC(C3)C1)C2 |
| > 46 µM | O=C(O[C@H]1C[C@H]2CC3C[C@@H](C1)N2CC3=O)c1c[nH]c2ccccc12 |
| > 46 µM | CC(C(=O)O)c1cccc(C(=O)c2ccccc2)c1 (centres undefined) |
| > 46 µM | CCOc1ccc(NC(=O)CC(C)O)cc1 (centres undefined) |
| > 46 µM | CC(CCc1ccc(O)cc1)NCC(O)c1ccc(O)cc1.Cl (centres undefined) |
| > 46 µM | Nc1nccs1 |
| > 46 µM | CCN(CC)CCNC(=O)C1C(C)=NC(/C=C2/C(=O)Nc3ccc(F)cc32)=C1C.O=C(O)CC(O)C(=O)O (centres undefined) |
| > 46 µM | COc1cc(O)c(C(=O)c2ccccc2)cc1S(=O)(=O)O |
| > 46 µM | CCCCCCCCCCCC(=O)OCC(O)CO (centres undefined) |
| > 46 µM | O=C1NC(=O)C(c2ccccc2)(c2ccccc2)N1 |
| > 46 µM | CC(=O)Nc1ccccc1 |
| > 46 µM | O=c1cc(CO)occ1O |
| > 46 µM | Cc1ccccc1CNc1ncnc2c1ncn2[C@@H]1O[C@H](CO)[C@@H](O)[C@H]1O |
| > 46 µM | C\C1=C\N(C(=O)NC1=O)[C@H]2\C=C/[C@@H](CO)O2 |
| > 46 µM | C[C@H]1c2cccc(O)c2C(=O)C2=C(O)[C@]3(O)C(=O)C(C(N)=O)=C(O)[C@@H](N(C)C)[C@@H]3[C@@H](O)[C@@H]21.Cl |
| > 46 µM | O=C1OC(OC(=O)c2cccnc2Nc2cccc(C(F)(F)F)c2)c2ccccc21 (centres undefined) |
| > 46 µM | N#Cc1ccc2c(c1)N(CCCN1CCC(O)CC1)c1ccccc1S2 |
| > 46 µM | C=CCc1cc(OC)c(O)c(C(=O)NCCO)c1 |
| > 46 µM | Oc1ncnc2[nH]ncc12 |
| > 46 µM | CN1C(C(=O)Nc2ccccn2)=C(O)c2ccccc2S1(=O)=O |
| > 46 µM | CNCCCN1c2ccccc2CCc2ccccc21.Cl |
| > 46 µM | O=C([O-])P(=O)([O-])[O-].[Na+].[Na+].[Na+] |
| > 46 µM | COc1ccc(CC2c3cc(OC)c(OC)cc3CC[N+]2(C)CCC(=O)OCCCCCOC(=O)CC[N+]2(C)CCc3cc(OC)c(OC)cc3C2Cc2ccc(OC)c(OC)c2)cc1OC.O=S(=O)([O-])c1ccccc1.O=S(=O)([O-])c1ccccc1 (centres undefined) |
| > 46 µM | OCC(O)CS (centres undefined) |
| > 46 µM | CC(=O)[C@@]1(O)CC[C@H]2[C@@H]3CCC4=CC(=O)CC[C@]4(C)[C@H]3CC[C@@]21C |

| IC50 | Compound |
| --- | --- |
| > 46 µM | Cc1c(NC(C)C)c(=O)n(-c2ccccc2)n1C |
| > 46 µM | O=C(NCC1CCCCN1)c1cc(OCC(F)(F)F)ccc1OCC(F)(F)F (centres undefined) |
| > 46 µM | O=C(O)c1ccccn1 |
| > 46 µM | CC(N/C(=N\C#N)Nc1ccncc1)C(C)(C)C.O (centres undefined) |
| > 46 µM | CCCCNc1ccc(C(=O)OCCN(C)C)cc1.Cl |
| > 46 µM | C[C@@H]1O[C@@H](OC[C@H]2O[C@@H](Oc3c(-c4ccc(O)c(O)c4)oc4cc(O)cc(O)c4c3=O)[C@H](O)[C@@H](O)[C@@H]2O)[C@H](O)[C@H](O)[C@H]1O |
| > 46 µM | CS(=O)(=O)c1ccc([C@@H](O)[C@@H](CO)NC(=O)C(Cl)Cl)cc1 |
| > 46 µM | O=C1CN(N=Cc2ccc(-c3ccc([N+](=O)[O-])cc3)o2)C(=O)[N-]1.[Na+] |
| > 46 µM | CCOC(=O)[C@@](C)(N)Cc1ccc(O)c(O)c1.Cl |
| > 46 µM | COc1cc2nc(N3CCN(C(=O)C4CCCO4)CC3)nc(N)c2cc1OC.Cl (centres undefined) |
| > 46 µM | CCCc1ncc(C[n+]2ccccc2C)c(N)n1.Cl.[Cl-] |
| > 46 µM | CCS(=O)(=O)CCn1c([N+](=O)[O-])cnc1C |
| > 46 µM | C[C@@H]1C[C@H]2[C@@H]3C[C@H](F)C4=CC(=O)C=C[C@]4(C)[C@@]3(Cl)[C@@H](O)C[C@]2(C)[C@H]1C(=O)COC(=O)C(C)(C)C |
| > 46 µM | Cl.NCCNC(=O)c1ccc(Cl)cn1 |
| > 46 µM | CC1=C(/C=C/C(C)=C/C=C/C(C)=C/C(=O)O)C(C)(C)CCC1 |
| > 46 µM | CCCCCCCCOc1ccc(C(=O)c2ccccc2)c(O)c1 |
| > 46 µM | CN(C)CC\C2=C\Nc1ccc(cc12)Cn3cncn3 |
| > 46 µM | C(N3C2)(SCC3)=N[C@H]2[C@@]1=CC=CC=C1.Cl |
| > 46 µM | NC(CS)C(=O)O (centres undefined) |
| > 46 µM | Nc1nc(/C(=C/CC(=O)O)C(=O)N[C@@H]2C(=O)N3C(C(=O)O)=CCS[C@H]23)cs1 |
| > 46 µM | CC(C)NC(=N)NC(=N)Nc1ccc(Cl)cc1.Cl |
| > 46 µM | FC(F)(F)C(F)(F)C(F)(F)C(F)(F)C(F)(F)C(F)(F)F |
| > 46 µM | Cl.Nc1c2c(nc3c1CCC3)CCCC2.O |
| > 46 µM | Cl[C@H](CC4)[C@H](OC)C[C@@H]4/C=[C@](C)/[C@@H](OC([C@]2([H])CCCCN12)=O)[C@H](C)[C@@H](O)CC([C@H](CC)/C=C(C)/C[C@H](C)C[C@H](OC)[C@@]([C@@H](OC)C[C@H]3C)([H])O[C@@]3(O)C(C1=O)=O)=O |
| > 46 µM | CC(=O)Nc1c(I)c(C(=O)N[C@H]2C(O)O[C@H](CO)[C@@H](O)[C@@H]2O)c(I)c(N(C)C(C)=O)c1I (some centres undefined) |
| > 46 µM | COCCCOc1ccnc(CS(=O)c2nc3ccccc3[n-]2)c1C.[Na+] (centres undefined) |
| > 46 µM | CCOC(=O)[C@H](CCc1ccccc1)N[C@@H](C)C(=O)N1CCC[C@H]1C(=O)O |

Further lines, the compound ahead of its results:

| Compound | IC50 |
| --- | --- |
| CCN(CC)C(=O)N1CCN(C)CC1.O=C(O)CC(O)(CC(=O)O)C(=O)O | > 46 µM |
| Cl.c1cc2c(c(N3CCNCC3)c1)OCCO2 | > 46 µM |
| Cn1sc(Cl)cc1=O | > 46 µM |
| C=CCC1(C(C)CCC)C(=O)N=C([S-])NC1=O.[Na+] (centres undefined) | > 46 µM |
| Clc1ccc2c(c1)C(N1CCNCC1)=Nc1ccccc1O2 | > 46 µM |
| CCCC1CCCCN1 (centres undefined) | > 46 µM |
| CCCCOc1cc(C(=O)NCCN(CC)CC)c2ccccc2n1 | > 46 µM |
| CCCC(=O)OC(C(Cl)(Cl)Cl)P(=O)(OC)OC (centres undefined) | > 46 µM |
| NCC[C@H](O)C(=O)N[C@@H]1C[C@H](N)[C@@H](O[C@H]2O[C@H](CN)CC[C@H]2N)[C@H](O)[C@H]1O[C@H]1O[C@H](CO)[C@@H](O)[C@H](N)[C@H]1O.O=S(=O)(O)O | > 46 µM |
| [O]=[Bi][O]C(=O)[O][Bi]=[O] | > 46 µM |
| Cl.FC(F)(F)c1cccc(C2=CCN(CCc3ccc4ccccc4c3)CC2)c1 | > 46 µM |
| NS(=O)(=O)c1cc(C(=O)O)cc(N2CCCC2)c1Oc1ccccc1 | > 46 µM |
| C[C@]12CCC(=O)C[C@@H]1CC[C@@H]1[C@@H]2CC[C@]2(C)[C@@H](O)CC[C@@H]12 | > 46 µM |
| CCOC(=O)/C=C(C)/C=C/C[C@@H](C)CCCC(C)C | > 46 µM |
| OCC=Cc1ccccc1 | > 46 µM |
| [H][C@]1(CC3)C[C@@H](OC(C(C5=CC=CC=C5)(O)C4=CC=CC=C4)=O)C[C@]3([H])[N@+]21CCCC2.[Cl-] | > 46 µM |
| CC1CC(O)CC(C)(C)C1 (centres undefined) | > 46 µM |
| Cl.Cl.NCCNc1cccc2ccccc12 | > 46 µM |
| CN(C)C(=O)Oc1cc(OC(=O)N(C)C)cc(C(O)CNC(C)(C)C)c1.Cl (centres undefined) | > 46 µM |
| c1ccc2sc(SN3CCOCC3)nc2c1 | > 46 µM |
| CN1c2c(O)nc(N)nc2NCC1CNc1ccc(C(=O)NC(CCC(=O)[O-])C(=O)[O-])cc1.[Na+].[Na+] (centres undefined) | > 46 µM |
| CC(O)Cn1cnc2c1c(=O)n(C)c(=O)n2C (centres undefined) | > 46 µM |

| Compound | IC50 |
| --- | --- |
| CC(=O)N(O)CCCCCNC(=O)CCC(=O)N(O)CCCCCNC(=O)CCC(=O)N(O)CCCCCN.CS(=O)(=O)O | > 46 µM |
| Cc1ccccc1C(OCCN(C)C)c1ccccc1.O=C(O)CC(O)(CC(=O)O)C(=O)O (centres undefined) | > 46 µM |
| CC(=O)O.N=C(N)NCCC[C@H](NC(=O)[C@@H]1CCCN1C(=O)[C@@H]1CSSC[C@H](N)C(=O)N[C@@H](Cc2ccc(O)cc2)C(=O)N[C@@H](Cc2ccccc2)C(=O)N[C@@H](CCC(N)=O)C(=O)N[C@@H](CC(N)=O)C(=O)N1)C(=O)NCC(N)=O | > 46 µM |
| C=C[C@H]1C[N@@]2CC[C@H]1C[C@H]2[C@H](OC(=O)OCC)c1ccnc2ccc(OC)cc12 | > 46 µM |
| COc1nc(N)nc2c1ncn2[C@@H]1O[C@H](CO)[C@@H](O)[C@@H]1O | > 46 µM |
| CCCOC(=O)c1ccccc1O | > 46 µM |
| CN(N=O)C(=O)N[C@@H]1[C@@H](O)[C@H](O)[C@@H](CO)O[C@@H]1O | > 46 µM |
| CC(=O)Nc1ccc(OC(=O)c2ccccc2OC(C)=O)cc1 | > 46 µM |
| O=C(O)COc1ccccc1 | > 46 µM |
| CCCCCCCCCCCCCCCC(=O)OC(C)C | > 46 µM |
| CC(C)Cn1cnc2c1c(=O)n(C)c(=O)n2C | > 46 µM |
| CCC(=O)O[C@H]1CC[C@H]2[C@@H]3CCC4=CC(=O)CC[C@]4(C)[C@H]3CC[C@]12C | > 46 µM |
| CNCCCC12CCC(c3ccccc31)c1ccccc12 | > 46 µM |
| O=C(CC)O[C@@]1([C@@]2=CC=CC=C2)[C@H](C)CN(C)CC1 | > 46 µM |
| N#CN | > 46 µM |
| O=C(NCCCN1CCOCC1)c1ccc(Cl)cc1 | > 46 µM |
| Cc1ncc2n1-c1ccc(Cl)cc1C(c1ccccc1F)=NC2.Cl | > 46 µM |
| CCC(=O)O[C@@](Cc1ccccc1)(c1ccccc1)[C@@H](C)CN(C)C.O=S(=O)(O)c1ccc2ccccc2c1 | > 46 µM |
| CCN(CC)CCOC(=O)C(C)(c1ccccc1)c1ccccc1 | > 46 µM |
| O=C(O)C(Cc1cc(I)c(O)c(I)c1)c1ccccc1 (centres undefined) | > 46 µM |
| O=[N+]([O-])c1ccccc1 | > 46 µM |
| COc1ccc(C(=O)CCC(=O)O)c2ccccc12 | > 46 µM |
